Key:
BV-2 [1] = assay: Anti-inflammatory activity against LPS-induced mouse BV-2 cells assessed as increase in cell viability preincubated with compound for 1 hrs followed by LPS stimulation and measured after 24 hrs by CCK-8 method; format: functional, cell-based; conditions: dose 2.5-20 µM, time 25.0 hrs
BV-2 [2] = assay: Anti-inflammatory activity in mouse BV-2 cells assessed as inhibition of LPS-induced NO production preincubated with compound for 1 hrs followed by LPS stimulation and measured after 24 hrs by Griess reagent based assay; format: functional, cell-based

Row | SMILES | Activity (BV-2 [1]) | IC50 (BV-2 [2]) [µM]
1 | CCCCCC[C@@H]1O[C@]23O[C@H]1CC=C2C(=O)CC[C@H]3O | Dose-Dependent Effect | 8.9
2 | CCCCCC[C@H]1O[C@]23O[C@H]1CC[C@@H]2C(=O)CC[C@H]3O | Dose-Dependent Effect | 3
3 | CCCCCC[C@@H]1O[C@@]23CC[C@@H](O)C(=O)[C@H]2CC[C@@H]1O3 | Dose-Dependent Effect | 14

— ChEMBL document CHEMBL5321265, “Polyketides with Anti-Inflammatory Activity from Trichoderma koningiopsis, a Rhizosphere Fungus from the Medicinal Plant Polygonum paleaceum” (J Nat Prod, 2023)
